Marks after values point to notes of the source that are not given here.
Test system: male rats
Assay: Plasma metabolite profiling (GC-MS, LC-MS, SPE-LC-MS) in male rats dosed once daily over 28 days (OECD 407)
Format: in vivo, rat
Conditions: male rats, plasma; for Glucose, ratio versus control / Lysophosphatidylcholine (C20:4), ratio versus control / Threonic acid, ratio versus control: low dose; for Alanine, ratio versus control / Androstenedione, ratio versus control / Cholesterol, ratio versus control / Glycine, ratio versus control / Heptadecanoic acid (C17:0), ratio versus control / Testosterone, ratio versus control / Threonine, ratio versus control / Uric acid, ratio versus control / alpha-Tocopherol, ratio versus control: high dose
Method: Each dose group in the studies consisted of five rats per sex. Additional groups of each 5 male and female animals served as controls. […] All animals of the animal population were kept under the same constant temperature (20-24±3° C.) and the same constant humidity (30-70%). The animals of the animal population were fed ad libitum. The food to be used was essentially free of chemical or microbial contaminants. Drinking water was also offered ad libitum. Accordingly, the water was free of chemical and microbial contaminants as laid down in the European Drinking Water Directive 98/83/EG. The illumination period was 12 hours light followed by 12 hours darkness (12 hours light, from 6:00 to 18:00, and 12 hours darkness, from 18:00 to 6:00). […] The test substances (compounds) in the Tables 1 to 17 below were dosed and administered as described in the Table 18.
In the morning of day 7, 14, and 28, blood was taken from the retroorbital venous plexus from fasted anaesthetized animals. From each animal, 1 ml of blood was collected with EDTA as anticoagulant. The samples were centrifuged for generation of plasma. All plasma samples were covered with a N2 atmosphere and then stored at −80° C. until analysis.
For mass spectrometry-based metabolite profiling analyses plasma samples were extracted and a polar and a non-polar (lipid) fraction was obtained. For GC-MS analysis, the non-polar fraction was treated with methanol under acidic conditions to yield the fatty acid methyl esters. Both fractions were further derivatised with O-methyl-hydroxyamine hydrochloride and pyridine to convert Oxogroups to O-methyloximes and subsequently with a silylating agent before analysis. In LC-MS analysis, both fractions were reconstituted in appropriate solvent mixtures. HPLC was performed by gradient elution on reversed phase separation columns. Mass spectrometric detection which allows target and high sensitivity MRM (Multiple Reaction Monitoring) profiling in parallel to a full screen analysis was applied as described in WO2003073464.
Steroids and their metabolites were measured by online SPE-LC-MS (Solid phase extraction-LC-MS).
Following comprehensive analytical validation steps, the data for each analyte were normalized against data from pool samples. These samples were run in parallel through the whole process to account for process variability. The significance of treatment group values specific for sex, treatmentduration and metabolite was determined by comparing means of the treated groups to the means of the respective untreated control groups using WELCH-test and quantified with treatment ratios versus control and p-values.
The identification of the most important biomarkers per toxicity pattern was done by a ranking of the analytes in the tables below. Therefore the metabolic changes in reference treatments of a given pattern (shown in the table) were compared with changes of the same metabolite in other unrelated treatments. […] The maximum absolute value of the respective TVALUE was taken to indicate the most important metabolite for the pattern.

Compound: C[C@]12CCC(=O)C(O)=C1CC[C@@H]1[C@@H]2CC[C@]2(C)C(=O)CC[C@@H]12 [Formestane]
- Glucose, ratio versus control (day 7): 0.8 *
- Lysophosphatidylcholine (C20:4), ratio versus control (day 7): 0.99 *
- Threonic acid, ratio versus control (day 7): 1.27 *
- Glucose, ratio versus control (day 14): 0.89 *
- Lysophosphatidylcholine (C20:4), ratio versus control (day 14): 0.97 *
- Threonic acid, ratio versus control (day 14): 1.24 *
- Glucose, ratio versus control (day 28): 0.9 *
- Lysophosphatidylcholine (C20:4), ratio versus control (day 28): 0.96 *
- Threonic acid, ratio versus control (day 28): 1.44 *

Compound: O=P1(NCCCl)OCCCN1CCCl (centres unmarked) [Ifosfamide]
- Alanine, ratio versus control (day 7): 1.07
- Androstenedione, ratio versus control (day 7): 3.68
- Cholesterol, ratio versus control (day 7): 1.12
- Glycine, ratio versus control (day 7): 1.33
- Heptadecanoic acid (C17:0), ratio versus control (day 7): 0.94
- Testosterone, ratio versus control (day 7): 2.35
- Threonine, ratio versus control (day 7): 1.21
- Uric acid, ratio versus control (day 7): 0.57
- alpha-Tocopherol, ratio versus control (day 7): 0.99
- Androstenedione, ratio versus control (day 14): 0.21 *
- Testosterone, ratio versus control (day 14): 0.21 *
- Alanine, ratio versus control (day 28): 0.76
- Androstenedione, ratio versus control (day 28): 0.24 *
- Cholesterol, ratio versus control (day 28): 1.13
- Glycine, ratio versus control (day 28): 1.28
- Heptadecanoic acid (C17:0), ratio versus control (day 28): 1.08
- Testosterone, ratio versus control (day 28): 0.22 *
- Threonine, ratio versus control (day 28): 0.88
- Uric acid, ratio versus control (day 28): 0.65
- alpha-Tocopherol, ratio versus control (day 28): 0.95

Reference: patent US20150010928A1, “MEANS AND METHODS FOR ASSESSING AN ENDOCRINE DISEASE OR DISORDER” (priority 2012, published 2015)
